Test results published in patent US20220009951A1, “TORSEMIDE PHOSPHATE PRODRUG, PREPARATION METHOD AND COMPOSITION THEREOF” (Shanghai Xunhe Pharmaceutical Technology Co. Ltd., priority 2019, published 2022).
Entries after “also recorded” stand apart in the source; their conditions may differ. Structures can show the parent of a compound that is named as a salt.

Key:
[1] = system: Male SD rats; experiment: Comparison of diuretic effects (urine output of saline-loaded rats); type: in vivo, rat; details: 30 mL/kg normal saline intragastrically, drug 10 mg/kg iv, urine collected for 4 h
Protocol: Comparison of Diuretic Effects:
Male SD rats (body weight 180±20 g) were divided into seven groups randomly, three rats a group, and each rat was administered intragastrically 30 mL/kg normal saline. After intragastric administration of normal saline, except the blank control group, each group was given one drug (10 mg/kg, iv, 1 mg/mL, formulation prescription: 0.5% methylcellulose), and the urination was collected for 4 hours.

[2] = Comparison of water solubility of different forms of samples
[3] = cited from earlier work
[4] = cited from earlier work; remark: listed apart in the source

| SMILES | Urine output (mL/kg, 4 h) [1] [mL/kg] | Conclusion (water solubility class) [2] | solubility in 0.1 mol/L sodium hydroxide solution ([3]; 0.1 mol/L sodium hydroxide solution) | solubility in water ([3]; water) | pKa value [4] |
| --- | --- | --- | --- | --- | --- |
| Cc1cccc(Nc2ccncc2S(=O)(=O)N(COP(=O)([O-])[O-])C(=O)NC(C)C)c1.[K+].[K+] [Compound of formula Ib, dipotassium N-hydroxymethyl-torsemide phosphate] | 116.8 | – | – | – | – |
| Cc1cccc(Nc2ccncc2S(=O)(=O)N(COP(=O)(O)O)C(=O)NC(C)C)c1 [Compound of formula Ic, N-hydroxymethyl-torsemide phosphate triethylammonium salt] | 103.4 | easily soluble | – | – | – |
| Cc1cccc(Nc2ccncc2S(=O)(=O)N(COP(=O)([O-])[O-])C(=O)NC(C)C)c1.[Na+].[Na+] [Compound of formula Ia, disodium N-hydroxymethyl-torsemide phosphate] | 121.6 | – | – | – | – |
| Cc1cccc(Nc2ccncc2S(=O)(=O)N(COP(=O)(O)O)C(=O)NC(C)C)c1 [Compound of formula I, N-hydroxymethyl-torsemide phosphate] | 105.4 | soluble | – | – | – |
| Cc1cccc(Nc2ccncc2S(=O)(=O)N(COP(=O)(O)O)C(=O)NC(C)C)c1 [Compound of formula Id, N-hydroxymethyl-torsemide phosphate tri-n-butylammonium salt] | 105.6 | easily soluble | – | – | – |
| Cc1cccc(Nc2ccncc2S(=O)(=O)NC(=O)NC(C)C)c1 [Torsemide, 1-[4-(3-methylphenyl)aminopyridin-3-yl]sulfonyl-3-isopropylurea] | 100.3 | – | slightly soluble | almost insoluble; also recorded: very slightly soluble | 6.44 |
